Test results reported in PMC7136958, “Targeting the pregnane X receptor using microbial metabolite mimicry” (EMBO Molecular Medicine, 2020).
Where “and” joins values, the source holds several entries; their conditions need not be identical. Equal entries are not always repeated. Marks after values point to notes of the source that are not given here.

Tests used:
[1] = test system: S. typhimurium 14038; assay: Salmonella invasion (gentamicin protection assay) in Caco-2 monolayers; assay type: cell-based, Salmonella typhimurium; settings: for Salmonella CFU/ml: Caco-2 cells, triplicate
Description: FKK compounds were tested for their ability to prevent Salmonella invasion in vitro in non‐inflamed and inflamed cell cultures. Overnight cultures of S. typhimurium 14038 were diluted to OD600 0.01 and injected into with HIOs or immersed over Caco‐2 monolayers for 1 h at 37°C. The invasive ability of Salmonella was assessed using the gentamicin protection assay (Gagnon et al, 2013). Bacterial adhesion scenarios to the Caco‐2 surface were set up as described above. Non‐adhered bacteria were removed by washing twice in PBS, followed by incubation with 1 ml gentamicin (150 μg/ml in DMEM) for 1 h at 37°C to kill the adhered extracellular bacteria. Dead bacteria were removed by washing twice in PBS, followed by incubation with 500 μl 0.1% Triton X‐100 for 15 min at 37°C to lyse the HIOs and Caco‐2, and release the intracellular (invaded) bacteria. Serial fold dilutions and plating were then employed to determine CFU/ml. We normalized to total protein using Bradford assay.

[2] = target: T1, hPXR-LBD (PXR.1) (Homo sapiens, UniProt O75469); assay: Isothermal titration calorimetry with His-tagged hPXR-LBD; assay type: binding; settings: 37°C
T1 construct: made in house; host or cells: E. coli BL21-Gold
T1 sequence (O75469 146-433 limits assumed): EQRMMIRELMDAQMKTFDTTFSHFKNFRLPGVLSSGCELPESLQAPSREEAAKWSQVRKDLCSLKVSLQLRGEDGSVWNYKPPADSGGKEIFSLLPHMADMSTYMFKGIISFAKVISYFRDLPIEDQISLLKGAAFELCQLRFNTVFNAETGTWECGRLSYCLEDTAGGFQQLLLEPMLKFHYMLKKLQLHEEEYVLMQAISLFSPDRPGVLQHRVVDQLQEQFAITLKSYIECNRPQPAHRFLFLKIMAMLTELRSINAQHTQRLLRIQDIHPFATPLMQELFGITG
Description: The cloning, expression, and purification of His‐tagged PXR‐LBD were performed as previously published (Wallace et al, 2013) with the following modifications: For protein expression, Luria–Bertani (LB) media were inoculated with a saturated culture of BL21‐Gold cells transformed with HIS‐LIC plasmid containing the PXR‐LBD construct. The mixture was allowed to shake at 37°C until the cells reached an OD600 ~ 0.6, and then, the temperature was reduced to 18°C, at which time IPTG was added (final concentration of 0.1 mM) to induce protein expression. For purification, the His‐tag was not removed, and the uncleaved protein was loaded onto the gel filtration column with buffer containing HEPES (4‐(2‐hydroxyethyl)‐1‐piperazineethanesulfonic acid) (25 mM, pH 7.5) and NaCl (150 mM).
Isothermal titration calorimetry (ITC) was carried out using a VP‐ITC microcalorimeter from MicroCal⁄Malvern Instruments (Northampton, MA, USA). […] In all the experiments, the ligand solution was injected in 10 μl aliquots into the calorimetric cell containing PXR‐LBD (ligand‐binding domain) at a concentration of 3–6 μM. […] The experiments were carried out at 37°C. The heat evolved upon each injection of the ligands was obtained from the integral of the calorimetric signal. The heat associated with binding to PXR‐LBD in the cell was obtained by subtracting the heat of dilution from the heat of reaction.

[3] = target: 468 kinases; assay: DiscoverX scanMAX kinase panel (KINOMEscan); assay type: binding, human; settings: panel of 468 kinases
Description: Kinase Assays. The kinase inhibition assays were conducted by DiscoverX on a platform assay by Ambit BioSciences as described previously 16,17. FKK6 was screened at a single concentration of 10 μM in duplicate. The scanMAXSM assay panel measures 468 kinases
(https://www.discoverx.com/services/drug-discovery-development-services/kinase-profiling/kinomescan/scanmax). The assays measure a compound’s ability to inhibit binding of a canonical ligand substrate, with 0% activity of control corresponding to full inhibition and 100% activity of control to no inhibition. […]
quantitative measure of compound selectivity based on the number of kinase hits (enzymes inhibited) divided by the total number of distinct kinases tested. Three different activity cut-offs were analyzed – S(35) or % activity of control < 35; S(10) or % activity of control < 10; and S(1) or % activity of control < 1. To illustrate effect or lack of effect, an image of the entire family of kinases tested were grouped by families and S(35). The TREEspot Kinase dendrogram image was generated using TREEspot™ Software Tool and reprinted with permission from KINOME scan®, a division of DiscoveRx […]

[4] = test system: ABCC2, UGT1A1, ABCB1, CYP3A4, GSTA1 mRNA; assay: PXR target gene mRNA in human duodenal enteroids
Description: Discarded duodenum tissue after surgery was obtained and used to isolate crypts. Embedded crypts in Matrigel formed 3D structures referred to as “enteroids”. […] DMSO was added to enteroids as a negative control. After incubation for 24 h, enteroids were collected in RNA‐free tube followed by breaking down Matrigel by pipetting vigorously (using 1 ml PBS). The enteroids were pelleted at 16,000 g for 3 min (4°C). RNA was extracted using miRNA isolation kit (Invitrogen; #AM1561) using the protocol provided by Invitrogen. […] PowerUp SYBR Green (Applied Biosystem, #A25742) was used for RT–PCR and performed 40 cycles using Quant Studio3 (Invitrogen, #A28132).

[5] = target: T2, hPXR (Homo sapiens, UniProt O75469); assay: hPXR TR-FRET competitive binding assay (LanthaScreen); settings: for 520/495 TR-FRET ratio: replicate wells; for TR-FRET signal (Fig 1e): each column a repeat
T2 sequence (O75469 111-434 limits assumed): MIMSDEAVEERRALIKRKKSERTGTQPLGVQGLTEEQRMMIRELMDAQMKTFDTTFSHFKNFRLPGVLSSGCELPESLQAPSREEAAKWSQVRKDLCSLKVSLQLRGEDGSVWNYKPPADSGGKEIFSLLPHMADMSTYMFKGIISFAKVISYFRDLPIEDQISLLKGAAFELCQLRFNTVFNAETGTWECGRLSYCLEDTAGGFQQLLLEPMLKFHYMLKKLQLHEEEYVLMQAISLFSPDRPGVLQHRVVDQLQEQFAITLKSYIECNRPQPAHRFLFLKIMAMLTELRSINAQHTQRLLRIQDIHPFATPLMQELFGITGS
Description: (§1) All PXR‐binding assays were performed as two independent experiments, each with a minimum of four replicates. Final IC50 was obtained by processing the data with GraphPad Prism 6 using standard curve interpolation (sigmoidal, 4PL, variable slope).

[6] = target: T2, hPXR; assay: biochemical
Description: as §1

O=C(c1ccncc1)c1cc2ccccc2n1S(=O)(=O)c1ccccc1 [FKK5, (1-(phenylsulfonyl)-1H-indol-2-yl)(pyridin-4-yl)methanone]
cytokine-induced salmonella invasion ([1]; 10 and 25 μM, vs cytokines only): significantly decreased
Salmonella CFU/ml ([1]; compound 10µm, no cytokines, 6 hr): 5980 CFU/ml and 4820 CFU/ml and 5870 CFU/ml
Salmonella CFU/ml ([1]; compound 10µm, no cytokines, 12 hr): 5920 CFU/ml and 4240 CFU/ml and 5520 CFU/ml
Salmonella CFU/ml ([1]; compound 25µm, no cytokines, 6 hr): 4940 CFU/ml and 4950 CFU/ml and 4400 CFU/ml
Salmonella CFU/ml ([1]; cytokines + compound 10µm, 6 hr): 5800 CFU/ml and 5710 CFU/ml and 4100 CFU/ml
Salmonella CFU/ml ([1]; cytokines + compound 10µm, 12 hr): 2240 CFU/ml and 4480 CFU/ml and 4320 CFU/ml
Salmonella CFU/ml ([1]; cytokines + compound 25µm, 6 hr): 3700 CFU/ml and 3900 CFU/ml and 3270 CFU/ml
Salmonella CFU/ml ([1]; cytokines + compound 25µm, 12 hr): 3040 CFU/ml and 3240 CFU/ml and 2560 CFU/ml
salmonella invasion, compound alone ([1]; no cytokines): No significant effect
ΔH (enthalpy of binding) [2]: -2.5 kcal/mol
−TΔS [2]: -6.4 kcal/mol
Kd ([2]; single-site model): 300 nM
kinase inhibition (in words) [3]: neither of these compounds inhibited the kinases tested
PXR target gene induction (in words) [4]: significantly induced
ABCB1 (MDR1) mRNA fold change, Mean ([4]; 10 μM, 24 h, n=3): 2.409 fold
ABCC2 mRNA fold change, Mean ([4]; 10 μM, 24 h, n=3): 4.345 fold
CYP3A4 mRNA fold change, Mean ([4]; 10 μM, 24 h, n=3): 2.034 fold
GSTA1 mRNA fold change, Mean ([4]; 10 μM, 24 h, n=3): 4.61 fold
UGT1A1 mRNA fold change, Mean ([4]; 10 μM, 24 h, n=3): 1.773 fold
520/495 TR-FRET ratio ([5]; 0.001 uM): 0.6965 and 0.4501 and 0.6299 and 0.6424
520/495 TR-FRET ratio ([5]; 0.005 uM): 0.7274 and 0.6833 and 0.7094 and 0.6960
520/495 TR-FRET ratio ([5]; 0.01 uM): 0.5474 and 0.5649 and 0.4572 and 0.5311
520/495 TR-FRET ratio ([5]; 0.05 uM): 0.6957 and 0.6419 and 0.6716 and 0.6881
520/495 TR-FRET ratio ([5]; 0.1 uM): 0.6678 and 0.6931 and 0.6595 and 0.6666
520/495 TR-FRET ratio ([5]; 0.5 uM): 0.6903 and 0.6366 and 0.6178 and 0.6056
520/495 TR-FRET ratio ([5]; 1 uM): 0.6447 and 0.5990 and 0.6565 and 0.5995
520/495 TR-FRET ratio ([5]; 5 uM): 0.4264 and 0.3946 and 0.3906 and 0.3944
520/495 TR-FRET ratio ([5]; 10 uM): 0.2760 and 0.2201 and 0.3383 and 0.4401
520/495 TR-FRET ratio ([5]; 25 uM): 0.2211 and 0.2334 and 0.2644 and 0.2449
TR-FRET signal (Fig 1e) ([5]; Drug Conc 5 nM): 0.7094 and 0.696 and 0.7274 and 0.6833
TR-FRET signal (Fig 1e) ([5]; Drug Conc 10 nM): 0.4572* and 0.5311* and 0.5474* and 0.5649*
TR-FRET signal (Fig 1e) ([5]; Drug Conc 1 uM): 0.5995 and 0.6565 and 0.599 and 0.6447
TR-FRET signal (Fig 1e) ([5]; Drug Conc 5 uM): 0.3906 and 0.3944 and 0.4264 and 0.3946
TR-FRET signal (Fig 1e) ([5]; Drug Conc 25 uM): 0.2644 and 0.2449 and 0.2211 and 0.2334
TR-FRET signal (Fig 1e) ([5]; Drug Conc 2,5 uM): 0.4667 and 0.4734 and 0.4777 and 0.4842
IC50 [6]: 3770 nM
